# Measurements from patent publication US8921372B2, “Inhibitors of hepatitis C virus” (Theravance Biopharma R&D IP, LLC, priority 2010, dated 2014).
# Where two headings read alike, the source gives them in different places.
# Legend:
# [1] = test system: HCV genotype 1b replicon cell line (APC144; Huh7 cell background); assay: HCV Genotype 1b Replicon Assay (Renilla luciferase readout); type: cell-based; details: Hepatitis C virus, Huh-7; read-out: Genotype 1b (pEC50 class, HCV genotype 1b replicon assay) (converted)
# Procedure, shortened: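 Huh7-derived APC144 subgenomic replicon cells carrying Renilla luciferase–NS3-NS5B, seeded 10,000/well without G418, then treated with compound dose-responses for 48 h at 37 °C (0.5% DMSO final). Luciferase signal fitted by 4-parameter model to EC50, reported as pEC50.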
# [2] = test system: HCV genotype 1a replicon cell line (APC89; Huh7.5 cell background); assay: HCV Genotype 1a Replicon Assay (NS3-specific protease activity readout); type: cell-based; details: Hepatitis C virus
# Procedure, shortened: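 Genotype 1a subgenomic replicon cells (APC89, Huh7.5) were treated with compound dose-responses in G418-free medium, 0.5% DMSO final, for 48 or 72 hours at 37° C. Lysate NS3/4a protease activity measured with 15 μM FRET substrate, 20 min at 37° C (ex 340/em 509 nm); EC50 by 4-parameter fit.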
# [3] = compounds incubated for 48 hours, read-out: Genotype 1a (pEC50 class, HCV genotype 1a replicon assay), * results (converted)
# [4] = 72 hour incubation, read-out: Genotype 1a (pEC50 class, HCV genotype 1a replicon assay) (converted)
SMILES,EC50 [1],"EC50 [2, 3]","EC50 [2, 4]"
"COC(=O)N[C@H](C(=O)N1CCC[C@H]1c1nc(-c2ccc(-c3ccc(NC(=O)c4ccc(N5CCN(C(=O)C(C)(C)C)CC5)cc4)cc3)cc2)c[nH]1)C(C)C [Example 2, ((S)-1-{(S)-2-[4-(4′-{4-[4-(2,2-Dimethyl-propionyl)-piperazin-1-yl]-benzoylamino}-biphenyl-4-yl)-1H-imidazol-2-yl]-pyrrolidine-1-carbonyl}-2-methyl-propyl)-carbamic acid methyl ester]",< 0.1 nM,1 to 10 nM,–
COCCNC(=O)N1CCC[C@@]1(C)C(=O)N1CCN(c2ccc(C(=O)Nc3cc(OC(F)(F)F)c(-c4ccc(-c5c[nH]c([C@@H]6CCCN6C(=O)[C@@H](NC(=O)OC)C(C)C)n5)cc4)cc3F)cn2)[C@H](C)C1 [Example 27-45],< 0.1 nM,–,< 0.1 nM
"CNC(=O)N1CCN(c2ccc(C(=O)Nc3ccc(-c4ccc(-c5c[nH]c([C@@H]6CCCN6C(=O)[C@@H](NC(=O)OC)C(C)C)n5)cc4)cc3)cn2)CC1 [Example 10, ((S)-2-Methyl-1-{(S)-2-[4-(4′-{[6-(4-methylcarbamoyl-piperazin-1-yl)-pyridine-3-carbonyl]-amino}-biphenyl-4-yl)-1H-imidazol-2-yl]-pyrrolidine-1-carbonyl}-propyl)-carbamic acid methyl ester]",< 0.1 nM,0.1 to 1 nM,–
CNC(=O)N1CCN(c2ccc(C(=O)Nc3ccc(-c4ccc(-c5c[nH]c([C@@H]6CCCN6C(=O)[C@@H](NC(=O)OC)C(C)C)n5)cc4)c(F)c3)cn2)[C@H](C)C1 [Example 47],< 0.1 nM,–,0.1 to 1 nM
COC(=O)N[C@H](C(=O)N1CCC[C@H]1c1nc(-c2ccc(-c3cc(F)c(NC(=O)c4ccc(N5CCN(C(=O)Cn6cccn6)C[C@H]5C)nc4)cc3OC(F)(F)F)cc2)c[nH]1)C(C)C [Example 27-36],< 0.1 nM,–,< 0.1 nM
CNC(=O)N1CCC[C@@]1(C)C(=O)N1CCN(c2ccc(C(=O)Nc3cc(OC(F)(F)F)c(-c4ccc(-c5c[nH]c([C@@H]6CCCN6C(=O)[C@@H](NC(=O)OC)C(C)C)n5)cc4)cc3F)cn2)[C@H](C)C1 [Example 27-47],< 0.1 nM,–,< 0.1 nM
COC(=O)N[C@H](C(=O)N1CCC[C@H]1c1nc(-c2ccc(-c3c(F)cc(NC(=O)c4ccc(N5CCN(C(=O)c6c[nH]cn6)C[C@H]5C)nc4)cc3F)cc2)c[nH]1)C(C)C [Example 44],< 0.1 nM,–,0.1 to 1 nM
COC(=O)N[C@H](C(=O)N1CCC[C@H]1c1nc(-c2ccc(-c3ccc(NC(=O)c4ccc(N5CCN(C(=O)C6CC6)C[C@H]5C)nc4)cc3OC(F)(F)F)cc2)c[nH]1)C(C)C [Example 28],< 0.1 nM,–,0.1 to 1 nM
"COC(=O)N[C@H](C(=O)N1CCC[C@H]1c1nc(-c2ccc(-c3ccc(NC(=O)c4ccc(N5CCN(S(C)(=O)=O)CC5)cc4)cc3)cc2)c[nH]1)C(C)C [Example 4, {(S)-1-[(S)-2-(4-{4′-[4-(4-Methanesulfonyl-piperazin-1-yl)-benzoylamino]-biphenyl-4-yl}-1H-imidazol-2-yl)-pyrrolidine-1-carbonyl]-2-methyl-propyl}-carbamic acid methyl ester]",< 0.1 nM,10 to 100 nM,–
CNC(=O)N1C[C@@H](C)N(c2ccc(C(=O)Nc3cc(OC(F)(F)F)c(-c4ccc(-c5c[nH]c([C@@H]6CCCN6C(=O)[C@@H](NC(=O)OC)C(C)C)n5)cc4)cc3F)cn2)C[C@@H]1C [Example 58],< 0.1 nM,–,< 0.1 nM
COC(=O)N[C@H](C(=O)N1CCC[C@H]1c1nc(-c2ccc(-c3cc(F)c(NC(=O)c4ccc(N5CCN(C(=O)[C@]6(C)CCCN6C(=O)[C@@H](NC(=O)OC)C(C)C)C[C@H]5C)nc4)cc3C(F)(F)F)cc2)c[nH]1)C(C)C [Example 52],< 0.1 nM,–,< 0.1 nM
COC(=O)N[C@H](C(=O)N1CCC[C@H]1c1nc(-c2ccc(-c3cc(Cl)c(NC(=O)c4ccc(N5CCN(C(=O)[C@]6(C)CCCN6C(=O)[C@@H](NC(=O)OC)C(C)C)C[C@H]5C)nc4)cc3C(F)(F)F)cc2)c[nH]1)C(C)C [Example 62],< 0.1 nM,–,< 0.1 nM
"COC(=O)N[C@H](C(=O)N1CCC[C@H]1c1nc(-c2ccc(-c3ccc(NC(=O)c4ccc(N5CCN(C(=O)[C@]6(C)CCCN6C(C)=O)C[C@H]5C)nc4)cc3C)cc2)c[nH]1)C(C)C [Example 15, [(S)-1-((S)-2-{5-[4′-({6-[(R)-4-((S)-1-Acetyl-2-methyl-pyrrolidine-2-carbonyl)2-methyl-piperazin-1-yl]-pyridine-3-carbonyl}-amino)-2′-methyl-biphenyl-4-yl]-1H-imidazol-2-yl}-pyrrolidine-1-carbonyl)-2-methyl-propyl]-carbamic acid methyl ester]",< 0.1 nM,–,< 0.1 nM
"CNC(=O)N1CCN(c2ccc(C(=O)Nc3ccc(-c4ccc(-c5nc([C@@H]6CCCN6C(=O)[C@@H](NC(=O)OC)C(C)C)[nH]c5Cl)cc4)cc3)cc2)CC1 [Example 11, {(S)-1-[(S)-2-(5-Chloro-4-{4′-[4-(4-methylcarbamoyl-piperazin-1-yl)-benzoylamino]-biphenyl-4-yl}-1H-imidazol-2-yl)-pyrrolidine-1-carbonyl]-2-methyl-propyl}-carbamic acid methyl ester]",< 0.1 nM,0.1 to 1 nM,–
COCCNC(=O)N1CCN(c2ccc(C(=O)Nc3cc(OC(F)(F)F)c(-c4ccc(-c5c[nH]c([C@@H]6CCCN6C(=O)[C@@H](NC(=O)OC)C(C)C)n5)cc4)cc3F)cn2)[C@H](C)C1 [Example 27-38],< 0.1 nM,–,< 0.1 nM
"CNC(=O)N1C[C@@H](C)N(c2ccc(C(=O)Nc3ccc(-c4ccc(-c5c[nH]c([C@@H]6CCCN6C(=O)[C@@H](NC(=O)OC)C(C)C)n5)cc4)c(OC(F)(F)F)c3)cn2)C[C@@H]1C [Example 29, ((S)-1-{(S)-2-[4-(4′-{[6-((2R,5S)-2,5-Dimethyl-4-methylcarbamoyl-piperazin-1-yl)-pyridine-3-carbonyl]-amino}-2′-trifluoromethoxy-biphenyl-4-yl)-1H-imidazol-2-yl]-pyrrolidine-1-carbonyl}-2-methyl-propyl)-carbamic acid methyl ester]",< 0.1 nM,–,< 0.1 nM
"COC(=O)N[C@H](C(=O)N1CCC[C@H]1c1nc(-c2ccc(-c3ccc(NC(=O)c4ccc(N5C[C@H](C)N(C(=O)[C@H]6CC6(C)C)C[C@H]5C)nc4)cc3C)c(C)c2)c[nH]1)C(C)C [Example 39, [(S)-1-((S)-2-{4-[4′-({6-[(2R,5S)-4-((S)-2,2-Dimethyl-cyclopropanecarbonyl)-2,5-dimethyl-piperazin-1-yl]-pyridine-3-carbonyl}-amino)-2,2′-dimethyl-biphenyl-4-yl]-1H-imidazol-2-yl}-pyrrolidine-1-carbonyl)-2-methyl-propyl]-carbamic acid methyl ester]",< 0.1 nM,–,< 0.1 nM
COC(=O)N[C@H](C(=O)N1CCC[C@H]1c1nc(-c2ccc(-c3ccc(NC(=O)c4ccc(N5CCN(C(=O)C6CC6)C[C@H]5C)nc4)cc3C(F)(F)F)cc2)c[nH]1)C(C)C [Example 35],< 0.1 nM,–,0.1 to 1 nM
COC(=O)N[C@H](C(=O)N1CCC[C@H]1c1nc(-c2ccc(-c3cc(Cl)c(NC(=O)c4ccc(N5C[C@H](C)N(C(=O)c6c[nH]cn6)C[C@H]5C)nc4)cc3C(F)(F)F)cc2)c[nH]1)C(C)C [Example 65],< 0.1 nM,–,< 0.1 nM
COC(=O)N[C@H](C(=O)N1CCC[C@H]1c1nc(-c2ccc(-c3ccc(NC(=O)c4ccc(N5CCN(C(=O)C6CC6)C[C@H]5C)nc4)cc3C)cc2)c[nH]1)C(C)C [Example 17],< 0.1 nM,–,0.1 to 1 nM
COC(=O)N[C@H](C(=O)N1CCC[C@H]1c1nc(-c2ccc(-c3ccc(NC(=O)c4ccc(N5CCN(C(=O)c6c[nH]cn6)C[C@H]5C)nc4)cc3C(F)(F)F)cc2)c[nH]1)C(C)C [Example 37],< 0.1 nM,–,0.1 to 1 nM
"COC(=O)N[C@H](C(=O)N1CCC[C@H]1c1nc(-c2ccc(-c3ccc(NC(=O)c4ccc(N5CCN(C(=O)[C@H]6CC6(C)C)C[C@@H]5C)nc4)cc3)cc2)c[nH]1)C(C)C [Example 13, [(S)-1-((S)-2-{4-[4′-({6-[(S)-4-((S)-2,2-Dimethyl-cyclopropane-carbonyl)-2-methyl-piperazin-1-yl]-pyridine-3-carbonyl}-amino)-biphenyl-4-yl]-1H-imidazol-2-yl}-pyrrolidine-1-carbonyl)-2-methyl-propyl]-carbamic acid methyl ester]",< 0.1 nM,–,< 0.1 nM
